Data taken from US7728105B2, “Peptides impairing PBX dependent gene regulation” (St. George's Hospital Medical School, priority 2002, dated 2010).
“Also recorded” adds a separate entry of the source.

What was measured:
Assay type in all cases: cell-based, human
PBX/HOX dimers = test: Western blotting of PBX and PBX/HOX dimers in CD133+ cells (Example 3); settings: 20 μg/ml, EDC cross-linking
Experimental: CD133+ cells (another name for AC133+ cells) were seeded in duplicate at 4×10^4 cells/ml in IMDM (Life Technologies), 10% FCS (Sigma Aldrich) and gentamycin (50 μg/ml Life Technologies) and Thrombopoietin (TPO) 10 ng/ml, Flt3-Ligand (FL) 50 ng/ml & c-KitL (K) 20 ng/ml), all obtained from R and D systems Ltd., UK. (Forraz et al., 2002). The HXP peptide (N-term: WYPWMKKHHRQIKIWFQNRRMKWKK: C-term; Eurogentec, Belgium) and control CXP peptide (N-term: WCCLADRHGRQIKIWFQNRRMKWKK: C-term; Eurogentec, Belgium) were added to culture medium at a concentration of 20 μg/ml. To withdraw peptides from culture, cells were washed twice in IMDM or RPMI and reseeded at prewash cell densities. Primary cells were cultured for 3 weeks at 37° C., 5% CO2 in humidified atmosphere and enumerated by a […] exclusion method with a heamocytometer.
Protein was extracted from HXP-treated or CXP-treated CD133+ cells (20 μg/ml). C-20 antibody that recognises all three human PBX gene proteins (sc-888, Santa Cruz Biotechnology Inc., USA; Monica et al., 1991). Protein cross linking was performed with 2 mM 1-ethyl-3-[3-(dimethylamino)propyl]carbodiimide (EDC) (Pierce Biotechnology, USA), in cell lysates diluted 1:10 in conjugation buffer (0.1M 2-[N-morpholino]ethane sulphonic acid, pH 5). […]

CD133+ cells = test: RT-PCR of HOX-PBX target genes in CD133+ cells
Experimental: Total RNA was isolated from liquid nitrogen snap-frozen cells using RNeasy Mini Kit protocol (Qiagen, Crawley, UK). 50 μl reverse transcription reactions using 1 μg of RNA per reaction heated at 75° C. cDNA with 1 μg of oligo-dT for 10 mins. Samples were cooled on ice and mixed with 200 units of M-MLV reverse transcriptase (Promega, Southampton, UK) in its associated buffer, 400 μM of dNTPs (Promega), and 40 units of RNAseout (Invitrogen, Paisley, UK). Samples were then incubated at 37° C. for one hour and finally heated at 75° C. for 5 mins. PCR reactions (35 cycles, 94° C. 30 sec, 55° C. 30 sec, 72° C. 1 min) were carried out in a 20 μl reaction using JumpStart ReadyMix REDTaq DNA polymerase (Sigma-Aldrich) using an identical amount of cDNA per reaction with 1 μM of forward and reverse primers.

malignant cell lines = test: Proliferation of malignant cell lines over seven days in culture; set-up: effect of increased dose on proliferation of malignant cell lines: dose or concentration left out as unconfirmed
Experimental: A number of cell lines representing different malignancies were grown in culture for seven days, and HXP peptide or the control peptide CXP were added to a final concentration of 20 μg/ml on day 3. The bars represent the fold increase of each cell line over the seven days; the empty, dashed bars indicate the CXP peptide treated cells, whilst the solid bars indicate the addition of HXP peptide. Error bars represent the standard error the mean, and n is the number of experiments performed. The cell lines used were: AML—KG1a; Bladder—HT; Breast—SKBR3; Cervical—HeLa; Colon—Colo41; Gastric—MKN-45; Large cell lung cancer—MES; Melanoma—DX3; Ovarian—1847; Pancreatic—Panc-Tu1; Prostate—LNCAP; Renal—HT1376; Small cell lung cancer—NCI-h510A. The change in the expression of the HOX genes expressed by each cell line was assessed by RT-PCR on RNA extracted from the cells at the end of seven days. ‘HOX gene inactivated’ means that the level of expression of each of the listed HOX genes was at least five fold lower in the HXP peptide treated cells compared to the control. *Analysis not yet complete.
A number of cell lines representing different malignancies were grown in culture for seven days, and HXP peptide or the control peptide CXP were added to a final concentration of 200 μg/ml on day 3. The bars represent the fold increase of each cell line over the seven days; the empty, dashed bars indicate the CXP peptide treated cells, whilst the solid bars indicate the addition of HXP peptide. Error bars represent the standard error the mean, and n is the number of experiments performed. The cell lines used were: Bladder—HT; Cervical—HeLa; Melenoma—DX3; Pancreatic—Panc-Tu1.
Solid tumour cell lines (Cancer Research UK) were seeded at 4×10^4 cells/ml, in a liquid culture system made of appropriate medium (see table, Sigma-Aldrich, UK) supplemented with 10% FCS (Sigma Aldrich) and penstrep (1% Sigma). All cell lines were grown with HXP peptide (as in Example 3, 20 μg/ml or 200 μg/ml) or control peptide CXP (20 μg/ml or 200 μg/ml).
KG1a, KG1, HL60 and U937 cell lines (EACC, UK) were seeded at 5×10^4 cells/ml, in a liquid culture system made of RPMI-1640 medium (Life Technologies, UK) supplemented with 10% FCS (Sigma Aldrich) and gentamicin (50 μg/ml Life Technologies) in triplicates. All cell lines were grown with HXP peptide peptide (20 μg/ml) or control peptide (20 μg/ml).
Cell lines were cultured for various time points at 37° C., 5% CO2 in humidified atmosphere and enumerated at various time points.

[1] = 20 μg/ml added on day 3, seven days culture

“WYPWMKKHHRQIKIWFQNRRMKWKK [HXP peptide]” was tested, and the “binding of PBX to other proteins / formation of PBX/HOX dimers” value (PBX/HOX dimers) was “prevented binding of PBX to other proteins; also recorded: distrupted the formation of PBX/HOX dimers”, the CD38 gene expression (CD133+ cells; 18 days) was “up-regulated” and the “expression of HOX-PBX target genes (CDC25, CDK2, N-Ras, Ras-like GTP binding protein, MMP19, MMP1, MAPK, RAB27A, Bak2, p53, CTCF, EIF4E, CD133, CD34, TERT, HOX B4, B8 and A9)” value (CD133+ cells; 18 days) was “significantly down regulated”. The “expression of HOX-PBX target genes after withdrawing HXP peptide” value (CD133+ cells; withdrawal at day 7) was “up-regulation of all of these genes with the exception of MAPK”, the “fold increase in cell number after 7 days in culture, in some cases” value (malignant cell lines; 20 μg/ml) was “less than 1” and the “proliferation of cells derived from colorectal, pancreatic, small cell lung, bladder, prostate, cervical, ovarian and gastric cancers” value (malignant cell lines; [1]) was “sufficient to block the proliferation”. For the same substance, the “proliferation of cells derived from renal, breast and non-small cell lung cancer” value (malignant cell lines; [1]) was “no significant affect” and the “effect of increased dose on proliferation of malignant cell lines” value (malignant cell lines; ten fold increase in dose) was “complete ablation of some malignancies”.
